Source: patent publication US20240158385A1, “NOVEL COMPOUNDS” (Cerevance, Inc., priority 2021, published 2024)
Read-outs that look alike come from different tables or passages of the source.

How the values were obtained:
[1] = tested on: IL-1β, mouse primary microglia; test: Inflammasome assay in primary mouse postnatal microglia using LPS/0 mM extracellular K+ (IL-1β levels); type: cell-based; settings: 100 ng/mL LPS 3.5 hours, compound 30 minutes, then K+ free buffer 2 hours, IL-1β by MesoScale Discovery
Method: Newly shaken mouse microglia cells were added to a 96-well plate and left to adhere overnight. After this time, 100 ng/mL LPS was added to each well and incubated at 37° C. for 3.5 hours, at which point compound addition was undertaken and plates incubated at 37° C. for an additional 30 minutes. After this time, the medium in each well was removed and replaced with K^+ free buffer and the plates then incubated for an additional 2 hours at 37° C. Measurement of IL-1βlevels in the sample wells was undertaken using MesoScale Discovery™ MESO QuickPlex SQ 120 and […] from mouse IL-1β DuoSet ELISA kit (R&D System, DY401).

human KCNK13 = molecular target: T1, human KCNK13 (Homo sapiens, UniProt Q9HB14); test: KCNK13 antagonist activity, thallium (Tl+) flux FLIPR assay; type: cell-based
T1 construct: expressed in transfected cells
T1 sequence (Q9HB14 1-408): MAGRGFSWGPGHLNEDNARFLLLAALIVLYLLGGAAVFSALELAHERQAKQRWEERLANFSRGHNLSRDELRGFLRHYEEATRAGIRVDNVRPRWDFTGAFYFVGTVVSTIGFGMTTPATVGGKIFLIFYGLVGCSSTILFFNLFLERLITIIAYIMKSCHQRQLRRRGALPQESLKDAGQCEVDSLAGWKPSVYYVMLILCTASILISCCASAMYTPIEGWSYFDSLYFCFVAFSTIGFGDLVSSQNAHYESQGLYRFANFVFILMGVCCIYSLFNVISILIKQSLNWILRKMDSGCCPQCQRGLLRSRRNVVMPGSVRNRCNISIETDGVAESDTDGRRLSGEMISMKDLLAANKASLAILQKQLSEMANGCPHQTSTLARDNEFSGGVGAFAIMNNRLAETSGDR
Summary of the method: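 HEK 293 cells stably expressing human KCNK13 loaded with Tl+-sensitive dye for 1 h at room temperature. Compounds (10-point half-log curves) preincubated 15 min before thallium sulfate stimulus, fluorescence tracked by FLIPR. IC50 from ten-point curves, each point the mean of two wells.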

[2] = HEK 293 cells stably expressing human KCNK13, Tl+ sensitive dye, FLIPR, compounds 15 minutes prior to thallium sulfate, 10 point half log curves from 10 PM, read-out: hKCNK13 IC50

Row | SMILES | IC50 [1] [nM] | IC50 (human KCNK13; [2]) [nM] | IC50 (human KCNK13) [nM]
1 | Nc1nonc1-c1nc2cccc(F)c2n1Cc1cccnc1 (single isomer, unassigned) [Example 86, 4-[7-fluoro-1-(pyridin-3-ylmethyl)benzimidazol-2-yl]-1,2,5-oxadiazol-3-amine] | ≤ 50 | < 50 | 
2 | Nc1nonc1-c1nc2cccc(F)c2n1Cc1ccncc1 (single isomer, unassigned) [Example 120, 4-[7-fluoro-1-(pyridin-4-ylmethyl)benzimidazol-2-yl]-1,2,5-oxadiazol-3-amine] | ≤ 50 | < 50 | 
3 | Nc1nonc1-c1nc2ccccc2n1Cc1cncnc1 [Example 21, 4-[1-(pyrimidin-5-ylmethyl)benzimidazol-2-yl]-1,2,5-oxadiazol-3-amine] | ≤ 100 |  | < 50
4 | Nc1nonc1-c1nc2cccc(F)c2n1Cc1cnccn1 [Example 32, 4-[7-fluoro-1-(pyrazin-2-ylmethyl)benzimidazol-2-yl]-1,2,5-oxadiazol-3-amine] | ≤ 200 | < 50 | 
5 | Cc1nonc1-c1nc2cccc(F)c2n1Cc1cncnc1 [Example 49, 3-[7-fluoro-1-(pyrimidin-5-ylmethyl)benzimidazol-2-yl]-4-methyl-1,2,5-oxadiazole] | ≤ 50 | < 100 | 
6 | Cc1nonc1-c1nc2ccccc2n1Cc1cncnc1 [Example 57, 3-methyl-4-[1-(pyrimidin-5-ylmethyl)benzimidazol-2-yl]-1,2,5-oxadiazole] | ≤ 200 | < 100 | 
7 | Nc1nonc1-c1nc2ccccc2n1Cc1ccncc1 [Example 71, 4-[1-(pyridin-4-ylmethyl)benzimidazol-2-yl]-1,2,5-oxadiazol-3-amine] | ≤ 200 | < 100 | 
